These antisense oligonucleotides have a phosphorothioate backbone; sugars and methylation of C are not fully specified.
target: GNA12; details: ASO
Further: test concentration or dose not given here.

Sequence | remaining target (mRNA or protein) (fraction of control)
GTTCCGTCTCTTCCTGTC | 0.36
TGTCGCGGAACTCCAGCA | 0.79
GCAGGATCTTCACCAGGC | 0.93
CATGAACAGGATGGACGT | 0.5
AGTGCTTCTTGATGCTCA | 0.62
CCGATCCGGTCCAAGTTG | 0.38
CAGAATCCCTCCAGAGTG | 0.37
AGCCCTTGAGGATGTTGT | 0.94
GCTTGAGGAACGTGGACT | 0.31
TTCATGGACTCCACCAGC | 0.57
CCCCGCCTTGTTCTCGAA | 0.85

target: PDPK1; details: ASO

Sequence | remaining target (mRNA or protein) (fraction of control)
CTGCTCTATGTTGCTGCC | 0.55
GCATGCTGCAGGGAGCCG | ≥ 1
AAATAAACCCTTCCGCTT | 0.74
CATCCCGCTCTCTGGTTA | 0.41
ATGTTTTCCGGTTTAAGG | 0.66
CAAGTACTCTAAAGCAGA | 0.65
CAAGAGCCCAAAGGTCTG | ≥ 1
GGACTTCTCCGTGAGCAG | 0.28
GTTTCCGCCAGCCTGCTT | ≥ 1
TAAACCCTTCCGCTTATC | ≥ 1
TTTGTTGACAGGATCCAC | 0.72
GAAGTCCTCAGGCCGCTT | 0.28
TGAGCAGCTCTGGAGAAA | 0.85
GGTGTGCTTTAAGAGGTC | 0.6
ATTGTCATAATTGCCATA | 0.78
CAGTCTGGGTCCTCACCA | 0.54
CCTGAAATGTGAAGTAAA | ≥ 1
TGGCATCTAAAACCAAAA | ≥ 1
AACTGGTGCCAAGGGTTT | 0.54
TGGACAAAGAAAGTTTTA | ≥ 1

Sequence | remaining target (mRNA or protein) (fraction of control)
CTCTAAAGCAGACACAAT | 0.71
GCAGGAACATAACACCAC | 0.54
CAGCTTCTCGTCGTCCTG | 0.26
CTGAAATGTGAAGTAAAG | 0.45
GATTTTGCGAATATATTT | ≥ 1
AAACTGGCTCAGGAGATT | 0.26
TAAAGCTTAACAAAGAAG | ≥ 1
GCAGGTGTCCTGGCAGCG | 0.49
CGATCTCAGCCGTGTAAA | 0.13
TGGCTGGCAGGTGGTCTG | 0.2
ATCGGGTACAGGTCTCAT | 0.68
GGTACAGGTCTCATCGAA | 0.1
ACTGGATGGGCACGGCGT | 0.63
GTGAGGAGGAGGACGAAG | 0.7
CTGACAGGGAGTGTGAGG | ≥ 1
AAAAGAGCCTTCCCCAAG | 0.88
CTCAGGCCGCTTCTTCCG | 0.53
AGCTGGCTGGTGGTCCTG | 0.36
GCGTCCTCCTCCCCGAAG | ≥ 1

Reference: the OligoGym collection
